# Entries after “also recorded” stand apart in the source; their conditions may differ. Like-named read-outs stand apart in the source and are kept apart here.
# T1: TrxR/Trx system (Homo sapiens, UniProt P10599)
# T1 construct: 6xHis (N); purchased Sigma (Trx); American Diagnostica (bovine TrxR)
# T1 sequence (P10599 1-105): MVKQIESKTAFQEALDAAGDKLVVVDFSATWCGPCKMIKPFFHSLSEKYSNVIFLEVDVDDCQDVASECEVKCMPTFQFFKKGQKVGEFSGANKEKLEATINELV
# T2: Recombinant human Trx (Homo sapiens, UniProt P10599)
# T2 sequence (P10599 1-105): T1 sequence (P10599 1-105)
# T3: TrxR/Trx insulin disulfide reduction (Homo sapiens, UniProt P10599)
# T3 construct: purchased Sigma; host or cells: E. coli (said of the Sigma Trx)
# T3 sequence (P10599 1-105): T1 sequence (P10599 1-105)
# B1: Trx-mesna: Trx covalently modified by a Tavocept-derived mesna moiety (conjugate, UniProt P10599 2-105, looked up)
# Thioredoxin: VKQIESKTAFQEALDAAGDKLVVVDFSATWCGPCKMIKPFFHSLSEKYSNVIFLEVDVDDCQDVASECEVKCMPTFQFFKKGQKVGEFSGANKEKLEATINELV
# modifications: mesna-modified
# notes: Trx covalently modified by a Tavocept-derived mesna moiety
# B2: Trx-GSH: Trx modified by glutathione, prepared with glutathione disulfide as control (conjugate, UniProt P10599 2-105, looked up)
# Thioredoxin: B1 Thioredoxin
# modifications: glutathione-modified
# notes: Trx modified by glutathione, prepared with glutathione disulfide as control
# Experiments:
# [1] = single oral dose of 100 mg, healthy volunteers; cited from earlier work
# TrxR/Trx system = molecular target: T1, TrxR/Trx system; assay: NADPH oxidation by TrxR and Trx; assay type: biochemical; details: increasing concentrations of the substance
# WT EGFR kinase = WT EGFR kinase (Homo sapiens, UniProt P00533); assay: WT EGFR kinase assay (ADP-glo); details: for more inhibition of WT EGFR relative to 4 nM Erlotinib alone: 10 μM ATP; for increased inhibition of WT EGFR relative to 20 nM Erlotinib alone: 100 μM ATP
# Recombinant human Trx [2] = molecular target: T2, Recombinant human Trx; assay type: biochemical; parameters: 6xHis (N); purchased Sigma (Trx); American Diagnostica (bovine TrxR); details: over MSSH and MSSCE
# Protocol: See, Luthman M and Holmgren A. Rat liver thioredoxin and thioredoxin reductase: purification and characterization. […] All disulfides were added to reactions as 10x solutions in buffer. The total volume of each reaction was 0.1 mL. Reactions were initiated by the addition of TrxR and were incubated at 25° C. for 40 minutes. Reactions were analyzed using a Molecular Devices SpectraMax Plus UV/vis plate reader and the activity was calculated using a 4 minute linear portion of each assay.
# [3] = system: bovine brain microtubule protein (α-/β-tubulin); assay: Microtubule protein polymerization assay (OD350) and electron microscopy; assay type: biochemical; details: for effect on GTP-catalyzed microtubule protein polymerization: preincubated with microtubule protein on ice 20 minutes, 37° C.
# thioredoxin = molecular target: T4, thioredoxin (Homo sapiens, UniProt P10599); assay: LC-MS of thioredoxin incubations; assay type: binding; details: ion at m/z 1288.3
# T4 construct: purchased Sigma (SigmaAldrich); host or cells: E. coli
# [4] = read-out: Cmax for mesna; 41 g/m^2 Tavocept; cited from earlier work
# some cell lines = assay: Mesna cytotoxicity in vitro (unpublished data)
# Recombinant human Trx [5] = molecular target: T2, Recombinant human Trx; assay: LC MS of Trypsin digested Trx after incubation with Tavocept, mesna or glutathione; assay type: binding; parameters: purchased Sigma (SigmaAldrich); host or cells: E. coli; details: fragment CMPTFQFFK (cys73); 10 mM, 4 to 6 hours
# [6] = system: non-small cell lung cancer; details: patients >=65 years treated with carboplatin and paclitaxel; cited from earlier work
# [7] = molecular target: T3, TrxR/Trx insulin disulfide reduction; assay: TrxR/Trx insulin disulfide reduction assay with isolated Trx species; assay type: biochemical; details: free Tavocept or glutathione disulfide removed
# Sequence of WT EGFR kinase (P00533 25-1210): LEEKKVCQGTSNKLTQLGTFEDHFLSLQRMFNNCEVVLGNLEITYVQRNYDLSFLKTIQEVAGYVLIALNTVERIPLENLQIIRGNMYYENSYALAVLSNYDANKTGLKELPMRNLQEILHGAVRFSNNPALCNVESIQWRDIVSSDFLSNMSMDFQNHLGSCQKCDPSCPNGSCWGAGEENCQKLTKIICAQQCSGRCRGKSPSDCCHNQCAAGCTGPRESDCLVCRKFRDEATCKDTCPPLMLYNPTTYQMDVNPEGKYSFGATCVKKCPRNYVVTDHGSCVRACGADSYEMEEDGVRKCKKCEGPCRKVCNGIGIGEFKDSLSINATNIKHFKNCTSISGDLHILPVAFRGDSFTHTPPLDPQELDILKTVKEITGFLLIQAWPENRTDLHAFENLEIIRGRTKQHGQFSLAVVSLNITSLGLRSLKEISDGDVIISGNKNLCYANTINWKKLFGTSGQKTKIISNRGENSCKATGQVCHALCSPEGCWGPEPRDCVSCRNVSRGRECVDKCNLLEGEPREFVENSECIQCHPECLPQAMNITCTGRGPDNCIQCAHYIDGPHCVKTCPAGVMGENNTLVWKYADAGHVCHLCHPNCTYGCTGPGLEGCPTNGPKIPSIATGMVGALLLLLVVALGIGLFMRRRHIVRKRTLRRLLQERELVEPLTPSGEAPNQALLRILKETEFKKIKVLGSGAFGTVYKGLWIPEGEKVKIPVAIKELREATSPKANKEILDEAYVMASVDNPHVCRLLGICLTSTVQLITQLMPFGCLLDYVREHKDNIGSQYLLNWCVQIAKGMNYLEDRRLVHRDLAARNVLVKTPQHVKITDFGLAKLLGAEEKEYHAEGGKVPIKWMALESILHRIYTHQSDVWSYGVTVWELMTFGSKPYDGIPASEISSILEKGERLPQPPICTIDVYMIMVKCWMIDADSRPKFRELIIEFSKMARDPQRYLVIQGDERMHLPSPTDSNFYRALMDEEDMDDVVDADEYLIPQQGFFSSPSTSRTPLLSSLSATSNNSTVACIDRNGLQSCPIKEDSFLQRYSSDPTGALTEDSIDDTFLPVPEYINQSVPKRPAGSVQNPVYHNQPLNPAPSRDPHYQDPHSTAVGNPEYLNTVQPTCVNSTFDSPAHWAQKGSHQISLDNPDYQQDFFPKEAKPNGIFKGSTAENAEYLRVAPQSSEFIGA
molecule,measurement,setting,value
C#Cc1cccc(Nc2ncnc3cc(OCCOC)c(OCCOC)cc23)c1 [Erlotinib],Cmax,[1],1390 ng/mL
"NC(CSSCCS(=O)(=O)O)C(=O)O (stereo not drawn) [MSSC, mesna-cysteine disulfide]",NADPH oxidation by TrxR and Trx,TrxR/Trx system,increases
same,more inhibition of WT EGFR relative to 4 nM Erlotinib alone,WT EGFR kinase; 0.75 mM + 4 nM Erlotinib,16%
same,more inhibition of WT EGFR relative to 4 nM Erlotinib alone,WT EGFR kinase; 1.5 mM + 4 nM Erlotinib,34%
same,more inhibition of WT EGFR relative to 4 nM Erlotinib alone,WT EGFR kinase; 2.5 mM + 4 nM Erlotinib,54%
same,increased inhibition of WT EGFR relative to 20 nM Erlotinib alone,WT EGFR kinase; 0.2 mM + 20 nM Erlotinib,17%
same,increased inhibition of WT EGFR relative to 20 nM Erlotinib alone,WT EGFR kinase; 2.5 mM + 20 nM Erlotinib,15%
same,Substrate preference of Trx,Recombinant human Trx [2],preferred slightly
"N[C@@H](CCC(=O)N[C@@H](CSSCCS(=O)(=O)O)C(=O)NCC(=O)O)C(=O)O [MSSG, mesna-glutathione disulfide]",NADPH oxidation by TrxR and Trx,TrxR/Trx system,increases
same,Substrate preference of Trx,Recombinant human Trx [2],preferred slightly
"O=S(=O)([O-])CCS.[Na+] [mesna, 2-mercapto ethane sulfonate]",effect alone on MTP polymerization or paclitaxel-induced hyperpolymerization,[3],no detectable effect
same,protection against monoaquocisplatin-induced loss of polymerization,[3]; mesna 200 μM preincubated 30 minutes with monoaquocisplatin 36 μM,prevented the monoaquocisplatin-induced loss; also recorded: able to protect
same,effect on GTP-catalyzed microtubule protein polymerization,[3],did not affect
same,effect on GTP-catalyzed microtubule protein polymerization,[3]; listed as Mesna,does not affect
same,mesna adduct on thioredoxin fragment CMPTFQFFK,thioredoxin,Cys73-mesna adduct
same,Cmax,[4],~323 µM
same,Concentrations that can be cytotoxic,some cell lines,≤ 400 µM
same,Mesna-Cysteine Adduct Detected?,Recombinant human Trx [5],presence of a mesna adduct on Cys73 of Trx
bevacizumab [Avastin],Survival advantage,[6],did not confer a survival advantage
B1,Effect on initial velocity relative to apo-Trx,[7],clear effect on initial velocity
B2,Effect on initial velocity relative to apo-Trx,[7],clear effect on initial velocity

# From patent US20160106439A1, “PNEUMATIC TOURNIQUET” (BIONUMERIK PHARMACEUTICALS, INC., priority 2013, published 2016)
